{
  "source": "patent US11033577B2",
  "about": "“Polymer conjugate of hexa-coordinated platinum complex” (priority 2015, dated 2021)",
  "experiment": "Body weight of mice in Antitumor Test 3",
  "assay_type": "in vivo",
  "settings": "caudal vein",
  "procedure": "Human stomach cancer 4-1ST was collected subcutaneously from a nude mouse and was cut into blocks each measuring about 3 mm on each side. The tumor blocks thus obtained were transplanted subcutaneously on the dorsal side of nude mice using a trocar. On the 20th day after transplantation, where the average tumor volume had reached about 100 to 200 mm^3, various drugs were administered through the caudal vein. The use and dose (in terms of drug) of the various administered drugs are as follows. In regard to the Example 7 compound, the compound was dissolved in a 5% glucose injectable solution, and the solution was administered once at a dose of 15 mg/kg or 7.5 mg/kg. In regard to the Example 16 compound, the compound was dissolved in a 5% glucose injectable solution, and the solution was administered once at a dose of 30 mg/kg or 15 mg/kg. As a control drug, l-OHP was administered once at a dose of 18 mg/kg or 9 mg/kg, and cisplatin was administered once at a dose of 10 mg/kg. Regarding the amounts of administration of l-OHP and cisplatin and the high amounts of administration of the various Example compounds, the maximum tolerable doses (MTD doses) were employed for all of the compounds. After the administration, the major axis (L) and the minor axis (W) of the tumor were measured over time using calipers, and the tumor volume (L×W×W×0.5) was calculated. The test was performed by employing four animals per group for all of a non-administered group as well as various drug-administered groups. During the period from the initiation of administration to the 21st day after administration, the relative tumor volume (T/C (%)) of each drug-administered group based on the relative tumor volume of a non-drug-administered group as 100 was calculated by the following formula as an index for the antitumor effect. T/C(%)=Relative tumor volume of administered group/relative tumor volume of non-administered group×100 Formula: […]\nAfter the administration, the body weights of the mice were measured over time. During the period from the initiation of administration to the 21st day after administration, the changes in the relative body weight based on the body weight on the day of initiation of administration as 1 are presented in Table 7.",
  "data": [
    {"smiles": "O=C1[O][Pt]2([NH][C@@H]3CCCC[C@H]3[NH]2)[O]C1=O", "note": "[l-OHP, oxaliplatin]", "values": [
      {"measurement": "Relative body weight in numbers of days after administration", "setting": "9 mg/kg once, day 0", "result": 1.00},
      {"measurement": "Relative body weight in numbers of days after administration", "setting": "9 mg/kg once, day 4", "result": 0.96},
      {"measurement": "Relative body weight in numbers of days after administration", "setting": "9 mg/kg once, day 7", "result": 1.00},
      {"measurement": "Relative body weight in numbers of days after administration", "setting": "9 mg/kg once, day 11", "result": 1.01},
      {"measurement": "Relative body weight in numbers of days after administration", "setting": "9 mg/kg once, day 14", "result": 1.02},
      {"measurement": "Relative body weight in numbers of days after administration", "setting": "9 mg/kg once, day 18", "result": 1.02},
      {"measurement": "Relative body weight in numbers of days after administration", "setting": "9 mg/kg once, day 21", "result": 1.02},
      {"measurement": "Relative body weight in numbers of days after administration", "setting": "18 mg/kg once, day 0", "result": 1.00},
      {"measurement": "Relative body weight in numbers of days after administration", "setting": "18 mg/kg once, day 4", "result": 0.85},
      {"measurement": "Relative body weight in numbers of days after administration", "setting": "18 mg/kg once, day 7", "result": 0.89},
      {"measurement": "Relative body weight in numbers of days after administration", "setting": "18 mg/kg once, day 11", "result": 0.98},
      {"measurement": "Relative body weight in numbers of days after administration", "setting": "18 mg/kg once, day 14", "result": 1.01},
      {"measurement": "Relative body weight in numbers of days after administration", "setting": "18 mg/kg once, day 18", "result": 1.02},
      {"measurement": "Relative body weight in numbers of days after administration", "setting": "18 mg/kg once, day 21", "result": 1.04}
    ]}
  ]
}
